Assays:
CCRF-CEM = experiment: NCI-60 one-dose screen, CCRF-CEM; assay type: cell-based; conditions: Homo sapiens, leukaemia, single dose 10 μM, read-out: Growth inhibition %
Procedure: (§1) Anti-proliferative effects of the counterparts 4a–g and 5a–g were screened against 60 human cancer cell lines, following the Developmental Therapeutics Program protocol, National Cancer Institute[35].
(§2) The anti-tumour activity of the fourteen synthesised congeners was investigated at the NCI against a panel of 60 cancer cell lines (NCI-60 Cell One-Dose Screen). The tested dibenzo[b,f]azepine derivatives were screened at a single dose level (10 μM), Table 1.

HL-60(TB) = experiment: NCI-60 one-dose screen, HL-60(TB); assay type: cell-based; conditions: Homo sapiens, leukaemia, single dose 10 μM, read-out: Growth inhibition %
Procedure: as §1, §2

K-562 = experiment: NCI-60 one-dose screen, K-562; assay type: cell-based; conditions: Homo sapiens, K562; K-562, leukaemia; single dose 10 μM; read-out: Growth inhibition %
Procedure: as §1, §2

MOLT-4 = experiment: NCI-60 one-dose screen, MOLT-4; assay type: cell-based; conditions: Homo sapiens; MOLT-4, leukaemia; single dose 10 μM; read-out: Growth inhibition %
Procedure: as §1, §2

EKVX = experiment: NCI-60 one-dose screen, EKVX; assay type: cell-based; conditions: Homo sapiens, non-small cell lung cancer, single dose 10 μM, read-out: Growth inhibition %
Procedure: as §1, §2

HOP-62 = experiment: NCI-60 one-dose screen, HOP-62; assay type: cell-based; conditions: Homo sapiens; HOP-62, non-small cell lung cancer; single dose 10 μM; read-out: Growth inhibition %
Procedure: as §1, §2

HOP-92 = experiment: NCI-60 one-dose screen, HOP-92; assay type: cell-based; conditions: Homo sapiens; HOP-92, non-small cell lung cancer; single dose 10 μM; read-out: Growth inhibition %
Procedure: as §1, §2

NCI-H23 = experiment: NCI-60 one-dose screen, NCI-H23; assay type: cell-based; conditions: Homo sapiens; NCI-H23, non-small cell lung cancer; single dose 10 μM; read-out: Growth inhibition %
Procedure: as §1, §2

NCI-H322M = experiment: NCI-60 one-dose screen, NCI-H322M; assay type: cell-based; conditions: Homo sapiens, non-small cell lung cancer, single dose 10 μM, read-out: Growth inhibition %
Procedure: as §1, §2

NCI-H460 = experiment: NCI-60 one-dose screen, NCI-H460; assay type: cell-based; conditions: Homo sapiens; NCI-H460, non-small cell lung cancer; single dose 10 μM; read-out: Growth inhibition %
Procedure: as §1, §2

NCI-H522 = experiment: NCI-60 one-dose screen, NCI-H522; assay type: cell-based; conditions: Homo sapiens; NCI-H522, non-small cell lung cancer; single dose 10 μM; read-out: Growth inhibition %
Procedure: as §1, §2

COLO 205 = experiment: NCI-60 one-dose screen, COLO 205; assay type: cell-based; conditions: Homo sapiens; COLO 205, colon cancer; single dose 10 μM; read-out: Growth inhibition %
Procedure: as §1, §2

HCT-15 = experiment: NCI-60 one-dose screen, HCT-15; assay type: cell-based; conditions: Homo sapiens; HCT-15, colon cancer; single dose 10 μM; read-out: Growth inhibition %
Procedure: as §1, §2

SF-295 = experiment: NCI-60 one-dose screen, SF-295; assay type: cell-based; conditions: Homo sapiens; SF-295, CNS cancer; single dose 10 μM; read-out: Growth inhibition %
Procedure: as §1, §2

SF-539 = experiment: NCI-60 one-dose screen, SF-539; assay type: cell-based; conditions: Homo sapiens; SF-539, CNS cancer; single dose 10 μM; read-out: Growth inhibition %
Procedure: as §1, §2

U251 = experiment: NCI-60 one-dose screen, U251; assay type: cell-based; conditions: Homo sapiens, U-251; U251, CNS cancer; single dose 10 μM; read-out: Growth inhibition %
Procedure: as §1, §2

LOX IMVI = experiment: NCI-60 one-dose screen, LOX IMVI; assay type: cell-based; conditions: Homo sapiens, melanoma, single dose 10 μM, read-out: Growth inhibition %
Procedure: as §1, §2

M14 = experiment: NCI-60 one-dose screen, M14; assay type: cell-based; conditions: Homo sapiens; M14, melanoma; single dose 10 μM; read-out: Growth inhibition %
Procedure: as §1, §2

SK-MEL-5 = experiment: NCI-60 one-dose screen, SK-MEL-5; assay type: cell-based; conditions: Homo sapiens; SK-MEL-5, melanoma; single dose 10 μM; read-out: Growth inhibition %
Procedure: as §1, §2

UACC-257 = experiment: NCI-60 one-dose screen, UACC-257; assay type: cell-based; conditions: Homo sapiens; UACC-257, melanoma; single dose 10 μM; read-out: Growth inhibition %
Procedure: as §1, §2

UACC-62 = experiment: NCI-60 one-dose screen, UACC-62; assay type: cell-based; conditions: Homo sapiens; UACC-62, melanoma; single dose 10 μM; read-out: Growth inhibition %
Procedure: as §1, §2

OVCAR-5 = experiment: NCI-60 one-dose screen, OVCAR-5; assay type: cell-based; conditions: Homo sapiens; OVCAR-5, ovarian cancer; single dose 10 μM; read-out: Growth inhibition %
Procedure: as §1, §2

OVCAR-8 = experiment: NCI-60 one-dose screen, OVCAR-8; assay type: cell-based; conditions: Homo sapiens; OVCAR-8, ovarian cancer; single dose 10 μM; read-out: Growth inhibition %
Procedure: as §1, §2

786-0 = experiment: NCI-60 one-dose screen, 786-0; assay type: cell-based; conditions: Homo sapiens; 786-0, renal cancer; single dose 10 μM; read-out: Growth inhibition %
Procedure: as §1, §2

A498 = experiment: NCI-60 one-dose screen, A498; assay type: cell-based; conditions: Homo sapiens; A498, renal cancer; single dose 10 μM; read-out: Growth inhibition %
Procedure: as §1, §2

ACHN = experiment: NCI-60 one-dose screen, ACHN; assay type: cell-based; conditions: Homo sapiens, renal cancer, single dose 10 μM, read-out: Growth inhibition %
Procedure: as §1, §2

RXF 393 = experiment: NCI-60 one-dose screen, RXF 393; assay type: cell-based; conditions: Homo sapiens; RXF 393, renal cancer; single dose 10 μM; read-out: Growth inhibition %
Procedure: as §1, §2

SN12C = experiment: NCI-60 one-dose screen, SN12C; assay type: cell-based; conditions: Homo sapiens, renal cancer, single dose 10 μM, read-out: Growth inhibition %
Procedure: as §1, §2

PC-3 = experiment: NCI-60 one-dose screen, PC-3; assay type: cell-based; conditions: Homo sapiens; PC-3, prostate cancer; single dose 10 μM; read-out: Growth inhibition %
Procedure: as §1, §2

MCF-7 = experiment: NCI-60 one-dose screen, MCF-7; assay type: cell-based; conditions: Homo sapiens, MCF7; MCF-7, breast cancer; single dose 10 μM; read-out: Growth inhibition %
Procedure: as §1, §2

MDA-MB-231-ATCC = experiment: NCI-60 one-dose screen, MDA-MB-231-ATCC; assay type: cell-based; conditions: Homo sapiens, breast cancer, single dose 10 μM, read-out: Growth inhibition %
Procedure: as §1, §2

HS 578 T = experiment: NCI-60 one-dose screen, HS 578 T; assay type: cell-based; conditions: Homo sapiens, breast cancer, single dose 10 μM, read-out: Growth inhibition %
Procedure: as §1, §2

T-47D = experiment: NCI-60 one-dose screen, T-47D; assay type: cell-based; conditions: Homo sapiens, T47D, breast cancer, single dose 10 μM, read-out: Growth inhibition %
Procedure: as §1, §2

MDA-MB-468 = experiment: NCI-60 one-dose screen, MDA-MB-468; assay type: cell-based; conditions: Homo sapiens; MDA-MB-468, breast cancer; single dose 10 μM; read-out: Growth inhibition %
Procedure: as §1, §2

Compound	inhibition at 10 µM (CCRF-CEM) [%]	inhibition at 10 µM (HL-60(TB)) [%]	inhibition at 10 µM (K-562) [%]	inhibition at 10 µM (MOLT-4) [%]	inhibition at 10 µM (EKVX) [%]	inhibition at 10 µM (HOP-62) [%]	inhibition at 10 µM (HOP-92) [%]	inhibition at 10 µM (NCI-H23) [%]	inhibition at 10 µM (NCI-H322M) [%]	inhibition at 10 µM (NCI-H460) [%]	inhibition at 10 µM (NCI-H522) [%]	inhibition at 10 µM (COLO 205) [%]	inhibition at 10 µM (HCT-15) [%]	inhibition at 10 µM (SF-295) [%]	inhibition at 10 µM (SF-539) [%]	inhibition at 10 µM (U251) [%]	inhibition at 10 µM (LOX IMVI) [%]	inhibition at 10 µM (M14) [%]	inhibition at 10 µM (SK-MEL-5) [%]	inhibition at 10 µM (UACC-257) [%]	further results
Cc1ccc(C(=O)NNC(=O)N2c3ccccc3C=Cc3ccccc32)cc1 [Compound 4d, N′-(4-Methylbenzoyl)-5H-dibenzo[b,f]azepine-5-carbohydrazide]	< 10	< 10	< 10	< 10	< 10	< 10	< 10	< 10	< 10	< 10	< 10	< 10	< 10	< 10	< 10	< 10	< 10	< 10	< 10	< 10	inhibition at 10 µM (UACC-62): < 10%; inhibition at 10 µM (OVCAR-5): < 10%; inhibition at 10 µM (OVCAR-8): < 10%; inhibition at 10 µM (786-0): < 10%; inhibition at 10 µM (A498): < 10%; inhibition at 10 µM (ACHN): < 10%; inhibition at 10 µM (RXF 393): < 10%; inhibition at 10 µM (SN12C): < 10%; inhibition at 10 µM (PC-3): < 10%; inhibition at 10 µM (MCF-7): < 10%; inhibition at 10 µM (MDA-MB-231-ATCC): < 10%; inhibition at 10 µM (HS 578 T): < 10%; inhibition at 10 µM (T-47D): < 10%; inhibition at 10 µM (MDA-MB-468): < 10%; melting point: 151 to 153 °C
O=C(NNC(=O)N1c2ccccc2C=Cc2ccccc21)c1ccc(Br)cc1 [Compound 4b, N′-(4-Bromobenzoyl)-5H-dibenzo[b,f]azepine-5-carbohydrazide]	< 10	< 10	< 10	< 10	< 10	< 10	< 10	< 10	< 10	< 10	< 10	< 10	< 10	< 10	< 10	< 10	< 10	< 10	< 10	14.4	inhibition at 10 µM (UACC-62): < 10%; inhibition at 10 µM (OVCAR-5): < 10%; inhibition at 10 µM (OVCAR-8): < 10%; inhibition at 10 µM (786-0): 21.1%; inhibition at 10 µM (A498): < 10%; inhibition at 10 µM (ACHN): 14%; inhibition at 10 µM (RXF 393): < 10%; inhibition at 10 µM (SN12C): < 10%; inhibition at 10 µM (PC-3): < 10%; inhibition at 10 µM (MCF-7): < 10%; inhibition at 10 µM (MDA-MB-231-ATCC): < 10%; inhibition at 10 µM (HS 578 T): < 10%; inhibition at 10 µM (T-47D): < 10%; inhibition at 10 µM (MDA-MB-468): < 10%; melting point: 237 to 239 °C
C1=Cc2ccccc2N(c2nnc(-c3ccc4ccccc4c3)o2)c2ccccc21 [Compound 5f, 2-(5 h-Dibenzo[b,f]azepin-5-yl)-5-(naphthalen-2-yl)-1,3,4-oxadiazole]	28.2	< 10	34	16.3	28.9	< 10	20.9	12.4	9.52	25.1	24.2	< 10	57	19.9	< 10	32.3	18.7	< 10	15.8	< 10	inhibition at 10 µM (UACC-62): 12.8%; inhibition at 10 µM (OVCAR-5): < 10%; inhibition at 10 µM (OVCAR-8): 9.31%; inhibition at 10 µM (786-0): < 10%; inhibition at 10 µM (A498): < 10%; inhibition at 10 µM (ACHN): 10.5%; inhibition at 10 µM (RXF 393): 10.4%; inhibition at 10 µM (SN12C): 15.7%; inhibition at 10 µM (PC-3): 40.9%; inhibition at 10 µM (MCF-7): 24.4%; inhibition at 10 µM (MDA-MB-231-ATCC): < 10%; inhibition at 10 µM (HS 578 T): < 10%; inhibition at 10 µM (T-47D): 18.3%; inhibition at 10 µM (MDA-MB-468): 11.1%; melting point: 201 to 203 °C
